Read-outs that look alike come from different tables or passages of the source.
Tests used:
tubulin = assay: In vitro tubulin polymerization assay (fluorescence-based); type: biochemical; details: for effect on tubulin polymerization / microtubules: tested in duplicate on at least two days
Description: In vitro tubulin polymerization assays were performed using a fluorescence-based assay (Cytoskeleton, Inc., Denver, Colo.). […] Aliquots (5 μL) of each compound or control were added to a 96-well black half area plate (Corning Costar, Inc.) pre-warmed to 37° C. Cold tubulin reaction mix (50 μL 1× Buffer—80 mM piperazine-N,N′-bis[2-ethanesulfonic acid]sequisodium salt; 2.0 mM magnesium chloride; 0.5 mM ethylene glycol-bis[β-amino-ethyl ether) N,N,N′,N′-tetra-acetic acid, pH 6.9, 10 μM fluorescent reporter; 20% tubulin glycerol buffer—80 mM piperazine-N,N′-bis[2-ethanesulfonic acid] sequisodium salt; 2.0 mM magnesium chloride; 0.5 mM ethylene glycol-bis(β-amino-ethyl ether) N,N,N′,N′-tetra-acetic acid, 60% v/v glycerol, pH 6.9, 1 mM GTP; and 2 mg mL^−1 tubulin stock) was added to each of the compounds. […] Polymerization curves were generated in Excel after background correction and the effects of test compounds were compared to controls.
Library members that accelerated the rate of tubulin polymerization were deemed microtubule stabilizers, whereas compounds that decelerated the rate of tubulin polymerization were deemed microtubule de-stabilizers.

[1] = tested on: mouse mammary normal epithelial control cell line; assay: Cytotoxicity assay, normal control cell line
A549 = assay: Cytotoxicity assay (cell titer-glo and calcein AM), A549
Du145 = assay: Cytotoxicity assay (cell titer-glo and calcein AM), Du145
Hep3B = assay: Cytotoxicity assay (cell titer-glo and calcein AM), Hep3B
SF-268 = assay: Cytotoxicity assay (cell titer-glo and calcein AM), SF-268
SK-OV-3 = assay: Cytotoxicity assay (cell titer-glo and calcein AM), SK-OV-3
ADR-RES = assay: Cytotoxicity assay (cell titer-glo and calcein AM), ADR-RES; details: NCI/ADR RES, % error in parentheses
NCI-H460 = assay: Cytotoxicity assay (cell titer-glo and calcein AM), NCI-H460
MCF7 = assay: Cytotoxicity assay (cell titer-glo and calcein AM), MCF7
A549 cells [2] = assay: Drug combination study with paclitaxel (Chou-Talalay combination index); details: for synergy (paclitaxel): combination index class, combination with paclitaxel, Chou-Talalay method; for plus paclitaxel, mean CI / plus paclitaxel, median CI: combination index, paclitaxel held at IC10, A549 cells; for interaction with paclitaxel/taxol: drug combination, A549 cells, Chou-Talalay;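 on all read-outs here: combination indexes averaged only over points where fraction affected exceeded 0.2, with each synergy experiment repeated at least three times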
A549 cells [3] = assay: Drug combination study with colchicine (Chou-Talalay combination index); details: for plus colchicine, mean CI / plus colchicine, median CI: combination index, colchicine held at IC10, A549 cells; for interaction with colchicine: drug combination, A549 cells, Chou-Talalay
[4] = read-out: Cytotoxicity IC50, NmuMG, CTG, CTG (cell titer-glo) readout, % error in parentheses
[5] = read-out: Cytotoxicity IC50, NmuMG, calcein, calcein AM readout, % error in parentheses
[6] = read-out: Cytotoxicity IC50, A549, CTG, A549, CTG (cell titer-glo) readout, % error in parentheses
[7] = read-out: Cytotoxicity IC50, A549, calcein, A549, calcein AM readout, % error in parentheses
[8] = read-out: Cytotoxicity IC50, Du145, CTG, Du145, CTG (cell titer-glo) readout, % error in parentheses
[9] = read-out: Cytotoxicity IC50, Du145, calcein, Du145, calcein AM readout, % error in parentheses
[10] = read-out: Cytotoxicity IC50, Hep 3B, CTG, Hep 3B, CTG (cell titer-glo) readout, % error in parentheses
[11] = read-out: Cytotoxicity IC50, Hep 3B, calcein, Hep 3B, calcein AM readout, % error in parentheses
[12] = read-out: Cytotoxicity IC50, SF-268, CTG, SF-268, CTG (cell titer-glo) readout, % error in parentheses
[13] = read-out: Cytotoxicity IC50, SF-268, calcein, SF-268, calcein AM readout, % error in parentheses
[14] = read-out: Cytotoxicity IC50, SK-OV-3, CTG, SK-OV-3, CTG (cell titer-glo) readout, % error in parentheses
[15] = read-out: Cytotoxicity IC50, SK-OV-3, calcein, SK-OV-3, calcein AM readout, % error in parentheses
[16] = read-out: Cytotoxicity IC50, NCI/ADR RES, CTG, CTG (cell titer-glo) readout
[17] = read-out: Cytotoxicity IC50, NCI/ADR RES, calcein, calcein AM readout
[18] = read-out: Cytotoxicity IC50, NCI-H460, CTG, NCI-H460, CTG (cell titer-glo) readout, % error in parentheses
[19] = read-out: Cytotoxicity IC50, NCI-H460, calcein, NCI-H460, calcein AM readout, % error in parentheses
[20] = read-out: Cytotoxicity IC50, MCF7, CTG, CTG (cell titer-glo) readout, % error in parentheses
[21] = read-out: Cytotoxicity IC50, MCF7, calcein, calcein AM readout, % error in parentheses

Compound | effect on tubulin polymerization / microtubules (tubulin) | IC50 [1, 4] [nM] | IC50 [1, 5] [nM] | IC50 (A549; [6]) [nM] | IC50 (A549; [7]) [nM] | IC50 (Du145; [8]) [nM] | IC50 (Du145; [9]) [nM] | IC50 (Hep3B; [10]) [nM] | IC50 (Hep3B; [11]) [nM] | IC50 (SF-268; [12]) [nM] | IC50 (SF-268; [13]) [nM] | IC50 (SK-OV-3; [14]) [nM] | IC50 (SK-OV-3; [15]) [nM] | IC50 (ADR-RES; [16]) [nM] | IC50 (ADR-RES; [17]) [nM] | IC50 (NCI-H460; [18]) [nM] | IC50 (NCI-H460; [19]) [nM] | IC50 (MCF7; [20]) [nM] | IC50 (MCF7; [21]) [nM] | plus paclitaxel, mean CI (A549 cells [2]) | also measured
6-deoxy-6-acyl-D-galactoside [Col56] | no apparent effect | 1520 | 1490 | 1910 | 2090 | 1150 | 1090 | 1480 | 2230 | 1760 | > 1000 | 901 | 1180 | 1160 | 994 | 1550 | 1090 | 3130 | 812 |  | tubulin polymeriz. (tubulin): no effect
COc1cc2c(c(OC)c1OC)-c1ccc(OC)c(=O)cc1[C@@H](NC(C)=O)CC2 [colchicine, reference compound] |  |  |  |  |  |  |  |  |  |  |  |  |  |  |  |  |  |  |  | 0.77 | synergy (paclitaxel) (A549 cells [2]): ++ (moderate synergism, Cl 0.7-0.85); plus paclitaxel, median CI (A549 cells [2]): 0.18
COc1cc2c(c(OC)c1OC)-c1ccc(OC)c(=O)cc1[C@@H](NC(=O)CN(OC)[C@@H]1O[C@H](CO)[C@@H](N=[N+]=[N-])[C@H](O)[C@H]1O)CC2 [Col44, 4-deoxy-4-azido-D-glucoside] | destabilized microtubules | 1420 | 3660 | 315 | 649 | > 1000 | > 1000 | 453 | 671 | 229 | 412 | > 1000 | > 1000 | > 1000 | > 1000 | > 1000 | > 1000 | 596 | 676 |  | 
COc1cccc2c1C(=O)c1c(O)c3c(c(O)c1C2=O)C[C@@](O)(C(=O)CO)C[C@@H]3O[C@H]1C[C@H](N)[C@H](O)[C@H](C)O1 [doxorubicin, reference compound] | no apparent effect |  |  |  |  |  |  |  |  |  |  |  |  |  |  |  |  |  |  |  | tubulin polymeriz. (tubulin): no effect; IC50 (A549; Homo sapiens, A549, read-out: IC50 (A549)): 770 nM; IC50 (Du145; Homo sapiens, DU-145, read-out: IC50 (Du145)): 339 nM; IC50 (Hep3B; Homo sapiens, Hep3B, read-out: IC50 (Hep3B)): 268 nM; IC50 (SF-268; Homo sapiens, SF-268, read-out: IC50 (SF-268)): 385 nM; IC50 (SK-OV-3; Homo sapiens, SK-OV-3, read-out: IC50 (SK-OV-3)): 621 nM; IC50 (NCI-H460; Homo sapiens, NCI-H460, read-out: IC50 (NCI-H460)): 1000 nM
COc1cc2c(c(OC)c1OC)-c1ccc(OC)c(=O)cc1[C@@H](N)CC2 [Col 6, deacetyl colchicine] |  |  |  |  |  |  |  |  |  |  |  |  |  |  |  |  |  |  |  | 0.57 | plus colchicine, mean CI (A549 cells [3]): 2.32; plus colchicine, median CI (A549 cells [3]): 1.96; interaction with colchicine (A549 cells [3]): antagonism; plus paclitaxel, median CI (A549 cells [2]): 0.20; interaction with paclitaxel/taxol (A549 cells [2]): synergy
COc1cc2c(c(OC)c1OC)-c1ccc(OC)c(=O)cc1[C@@H](NC(=O)CN(OC)[C@H]1C[C@@H](O)[C@H](O)[C@@H](CO)O1)CC2 [Col16, 2-deoxy-D-glucoside] | destabilized microtubules | 1610 | 4420 | 3900 | 1680 | 705 | 910 | 1920 | 1440 | 1070 | 1540 | 432 | 625 | 1680 | 899 | 946 | 808 | 2650 | 1920 | 0.40 | plus colchicine, mean CI (A549 cells [3]): 5.97; plus colchicine, median CI (A549 cells [3]): 5.33; interaction with colchicine (A549 cells [3]): antagonism; plus paclitaxel, median CI (A549 cells [2]): 0.11; interaction with paclitaxel/taxol (A549 cells [2]): synergy
19-(N-METHOXYAMINO-N-22-DEOXY-D-RIBOSYL)COLCHICINE [Col21] |  |  |  |  |  |  |  |  |  |  |  |  |  |  |  |  |  |  |  | 4.96 | plus colchicine, mean CI (A549 cells [3]): 1.01; plus colchicine, median CI (A549 cells [3]): 0.64; synergy (paclitaxel) (A549 cells [2]): — (moderate antagonism, Cl 1.2-1.45); plus paclitaxel, median CI (A549 cells [2]): 2.50
COc1cc2c(c(OC)c1OC)-c1ccc(OC)c(=O)cc1[C@@H](NC(=O)CN(OC)[C@@H]1O[C@H](C(=O)O)[C@H](O)[C@H](O)[C@H]1O)CC2 [Col18, D-Galacturonoside] | no effect | 2090 | 2620 | 1100 | 1070 | 1120 | 1190 | 2000 | 2270 | 834 | 1110 | 1080 | 1070 | 1110 | 828 | 993 | 1130 | 1160 | 1490 |  | 
COc1cc2c(c(OC)c1OC)-c1ccc(OC)c(=O)cc1[C@@H](NC(=O)CN(OC)[C@@H]1O[C@H](CO)[C@@H](O[C@H]3O[C@H](CO)[C@@H](O)[C@H](O)[C@H]3O)[C@H](O)[C@H]1O)CC2 [Col38, D-maltoside] | destabilized microtubules | 976 | 875 | 244 | 508 | 215 | 342 | 229 | 1390 | 160 | 319 | 252 | 316 | 199 | 173 | 112 | 487 | 291 |  |  | 
COc1cc2c(c(OC)c1OC)-c1ccc(OC)c(=O)cc1[C@@H](NC(=O)CN(OC)[C@@H]1OC[C@@H](O)[C@@H](O)[C@H]1O)CC2 [Col5, D-riboside] |  | > 10000 | > 10000 | > 10000 | > 10000 | > 10000 | 6780 | 9860 | 6520 | 5010 | 4590 | > 10000 | > 10000 | 4840 | 5060 | 5060 | 5760 | 2840 | 2880 |  | 

Source: patent US20130012466A1 (priority 2006, published 2013)
